According to US9522128B2 (FUNDACION PARA LA INVESTIGACION BIOMEDICA DEL HOSPITAL …, priority 2008, dated 2016):
Like-named read-outs stand apart in the source and are kept apart here.

Experiments:
[1] = Text: No data have been reported for humans. […] The resulting plot is shown in FIG. 14 (diamonds: rabbit data; triangles: rat data; blank squares: data from pig experiments; filled squares including a white point: data from the summary of product characteristics for humans).
Wistar rats [2] = assay: Preliminary in vivo study of cilastatin nephroprotection against acute toxic renal failure caused by cisplatin; set-up: species or system rat; settings: cisplatin 5 mg/kg plus cilastatin 75 or 150 mg/kg every 12 hours intraperitoneal
Procedure: Five animals, each subjected to a different treatment regimen, were preliminarily used.
At the time of killing, animals were weighed and anesthetized with ketamine (10 mg/kg) and diazepam (4 mg/kg). Once anesthetized, blood was drawn by cannulation of the abdominal aorta at the bifurcation level. This blood was kept for 30 minutes at 37° C. and subsequently for 1 hour at 4° C., after which it was centrifuged at 2000 rpm for 15 minutes at 4° C. This allowed for separation of blood serum, which was stored at −80° C. until use.

[3] = test system: primary cultures of proximal tubular cells; assay: Mitochondrial activity using MTT reduction; type: cell-based, pig; settings: presence of cilastatin with nephrotoxics
Procedure: Mitochondrial functionality of PTCs was measured by metabolic reduction of 3-(4,5-dimethylthiazole-2-yl)-2,5-diphenyltetrazole bromide (MTT, supplied by Calbiochem), performed by the mitochondrial enzyme succinate dehydrogenase, yielding a blue-colored compound (formazan). […] MTT was subsequently added to each well at a final concentration of 0.5 mg/mL and incubated for 3 hours at 37° C. in the dark. Once this incubation was completed, 100 μL of lysis buffer (20% SDS in 50% N,N-dimethylformamide, pH 4.7) were added, and the plate was incubated overnight at 37° C. in the dark. Absorbance was measured at 595 nm on the following day.
Percent viability was calculated as follows:
Real time MTT reduction was measured in semiconfluent proximal cells seeded in 24-well plates (16 mm in diameter) in which culture medium was replaced by MTT at 0.5 mg/mL of final concentration in PBS. This reduction was determined by measuring absorbance at 595 nm with an Olympus IX70 inverted fluorescence microscope coupled to a photomultiplier controlled from a SLM Aminco 2000 fluorimeter. […] In this test, as in the previous ones, vancomycin was directly added to the plate during measurement of absorbance. […]

[4] = test system: primary cultures of proximal tubular cells (PTCs); assay: Cell growth dynamics in primary culture of proximal tubular cells
[5] = test system: CD3+ lymphocytes (human T cells)
Procedure: The sample was centrifuged at 120 g and was resuspended in 750 μL of RPMI medium (in the absence of FCS: fetal calf serum) to quantify the number of cells available using trypan blue. One hundred thousand cells per point were distributed.
Incubation was performed for 4 hours at 37° C. Cells were centrifuged for 6 minutes at 1200 rpm. The precipitate was resuspended in 100 μL of buffer (10 mmol/L HEPES, 150 mmol/L NaCl, 5 mmol/L KCl, 1 mmol/L Mg Cl2, 1.8 mmol/L CaCl2) and 5 μL of annexin-V. It was incubated in the dark for 10 minutes.
Intensity of green fluorescence of cells was quantified as displacement in the logarithmic scale from control (cells growing in 10% FCS) versus the number of cells analyzed. Cell debris was excluded from the analysis.

[6] = test system: primary cultures of proximal tubular cells; settings: 48 h, 11 nephrotoxics
Wistar rats [7] = assay: Extended in vivo study of cilastatin nephroprotection against acute toxic renal failure caused by cisplatin
Text: A total of 28 animals were used, which were randomized into 4 groups with a sample size n=6-8 animals per group.
Throughout the period, animals were given free access to both water and feed (standard diet) in a controlled light, temperature, and humidity environment. One day before killing, animals were introduced into metabolic cages with free access to feed and water ad libitum to collect 24-hour urine, in order to quantify urine output and protein concentration.
At the time of killing, animals (previously weighed) were anesthetized in the experimental operating room with ketamine (10 mg/kg) and diazepam (4 mg/kg) and were drawn blood by cannulation of the abdominal aorta at the bifurcation level. Blood was first incubated for 30 minutes at 37° C., and then for one hour at 4° C. Subsequent centrifugation at 2000 rpm for 15 minutes at 4° C. allowed for obtaining blood serum, which was frozen at −80° C. until use. […] Kidneys were subsequently removed, decapsulated, and kept in cold saline during their handling to minimize tissue degradation. Kidneys (right and left) were weighed and were subsequently handled similarly. […] The rest of the right kidneys, as well as left kidneys, were separated into cortex and medulla, and both samples were frozen in liquid nitrogen and stored at −80° C. until use.
Hemodynamic variables and serum and urine kidney function parameters (FIG. 14) were measured using a Dimension RxL autoanalyzer from Dade-Behring according to manufacturer instructions.
This time, urine samples were taken before killing, as indicated in the section describing the procedure.

DHP-I = DHP-I (Homo sapiens, UniProt P16444); settings: Koller 1985, Campbell 1988; cited from earlier work
[8] = test system: primary cultures of proximal tubular cells; settings: cilastatin added to cultures with nephrotoxics, 24 hours
Procedure: Cells shed to the supernatant were collected by direct aspiration using an automatic pipet, and adherent cells were separated from the culture plate by trypsinization.
The PTCs thus obtained were separately fixed and permeabilized with 70% ethanol and stored at −20° C. After removing ethanol, cells were washed two times with PBS.
The count was performed in a FACScan cytometer (Beckton Dickinson) equipped with a simple argon ion laser. Windows were fixed based on the characteristics of FSC (size), SSC (complexity), FL2-H (height), FL2-A (area), and FL2-W (width). The latter two were used to rule out cell doublets. Analysis was performed using WinMDI 2.9 software.

[9] = test system: primary cultures of proximal tubular cells; settings: co-incubation with cilastatin; 24 hours aggression (12 hours for cisplatin), long-term survival 7 days
[10] = test system: primary cultures of proximal tubular cells; settings: 24 hours, with cilastatin; vancomycin, cyclosporin, tacrolimus, acetaminophen, cisplatin, gentamicin
Procedure: Cells were subsequently detached, and the final volume obtained was recorded. Cell lysate was subjected to a thermal shock, for which it was first heated at 100° C. for 5 min and then placed on ice. Each sample was subjected to sudden decompression. Samples were centrifuged at 12000 rpm for 5 min, and supernatant was collected.
For this purpose, PTCs were incubated with the different nephrotoxics under study, and the cumulative intracellular concentration of toxics in PTCs was quantified, in accordance with the procedure described at the start of the Examples.

[11] = test system: cultures of cells of the proximal tubular epithelium; assay: Scanning electron microscopy of cell morphology; settings: 11 days; cyclosporin A 1 μg/mL without or with cilastatin 200 μg/mL
tubular endothelium = settings: dose of 1 g/kg/day; Sack 1985; cited from earlier work
humans = settings: period immediately subsequent to transplant; cited from earlier work
[12] = test system: renal degradation of imipenem; settings: with cilastatin; cited from earlier work
[13] = cited from earlier work; for nature (neutral, anionic, apolar) at physiological pH: 7 or close to 7
[14] = test system: cells of pig proximal tubular epithelium in primary culture
rabbits = settings: rabbit, in vivo; cited from earlier work

DHP-I, sequence (P16444 17-385): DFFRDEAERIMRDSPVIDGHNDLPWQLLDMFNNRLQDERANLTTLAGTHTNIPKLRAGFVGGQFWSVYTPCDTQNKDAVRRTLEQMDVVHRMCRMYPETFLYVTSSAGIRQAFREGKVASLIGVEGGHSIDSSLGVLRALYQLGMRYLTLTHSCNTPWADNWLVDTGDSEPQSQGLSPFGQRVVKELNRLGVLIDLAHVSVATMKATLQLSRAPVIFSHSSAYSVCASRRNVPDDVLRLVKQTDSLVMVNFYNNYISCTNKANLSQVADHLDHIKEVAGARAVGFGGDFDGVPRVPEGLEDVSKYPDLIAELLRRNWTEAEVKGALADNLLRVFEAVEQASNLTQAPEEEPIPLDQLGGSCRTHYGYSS

## CC1(C)C[C@@H]1C(=O)N/C(=C\CCCCSC[C@H](N)C(=O)O)C(=O)[O-].[Na+] (relative stereo) [cilastatin, monosodium salt of [R—[R*,S*—(Z)]]-7-[(2-amino-2-carboxyethyl)thio]-2-[[(2,2-dimetylcyclopropyl)carbonyl]amino]-2-heptenoic acid]
[1]; all species
  plasma level up to which the dose/plasma level relationship is linear: around 800 mg/L
[1]; estimated
  minimum effective dose: 10 mg/kg body weight
[1]; mean value for a human adult
  estimated minimum nephroprotective dose in humans: 750 mg/day
Wistar rats [2]
  weight loss or changes in plasma creatinine: no significant weight loss or changes in plasma creatinine
[3]
  restoration of mitochondrial electronic transfer capacity: totally or partially restores
[4]; cilastatin 200 μg/mL with cyclosporin A or tacrolimus
  effect of co-incubation with cilastatin on the effect of nephrotoxics on cell growth: partially prevents
[4]; increasing cilastatin doses for 14 days, up to almost 10 times plasma concentrations reached in vivo
  effect upon growth dynamics, cell confluence, or monolayer morphology: No significant effect
[4]; with cyclosporin
  day of culture from which cell growth recovers with cilastatin: ≥ 11 days
[4]; with tacrolimus (FK-506), decrease from day 7
  time from which cell growth recovers with cilastatin: from the same time
[5]; cilastatin 200 μg/mL
  protective effect on cyclosporin A induced T cell death: absence of a protective effect
[6]
  induction of apoptosis (nucleosomes) on co-incubation of nephrotoxics plus cilastatin: induction of apoptosis ceases or is significantly reduced
Wistar rats [7]; cilastatin 75 mg/kg every 12 hours without cisplatin
  increase of mean weight: approximately 14 grams
Wistar rats [7]; cisplatin 5 mg/kg, cilastatin 75 mg/kg every 12 hours intraperitoneal
  proteinuria and urinary osmolality: completely reversed the values to normal levels
Wistar rats [7]; end of the extended study (5 days), mean ± standard error
  FINAL WEIGHT: 273 ± 7
DHP-I
  conversion of leukotriene D4 to leukotriene E4: strongly inhibited
[8]
  number of dead cells (sloughed to supernatant, anoikis): reduced in all cases the number of dead cells
[9]
  cell growth / colony-forming units after nephrotoxic aggression (crystal violet): totally or partially restores cell growth
[10]
  intracellular accumulation of nephrotoxics: interferes with intracellular administration of all nephrotoxics tested
[11]
  cell morphology by scanning electron microscopy: these changes do not usually occur
Tubular endothelium
  sign of renal toxicity: could cause sloughing of tubular endothelium
humans
  nephrotoxicity induced by CsA: may effectively counteract
[12]
  urinary excretion rate of imipenem: up to 70 % of the initial imipenem dose administered

## CC(=O)Nc1ccc(O)cc1 [Acetaminophen, N-(4-hydroxyphenyl)ethanamide]
[13]; in words
  SOLUBILITY IN WATER: moderately soluble in
[13]; in words, in ethanol and acetone
  SOLUBILITY IN ORGANIC MEDIA: soluble in ethanol and acetone
[13]; in words, in serum
  SOLUBILITY IN ORGANIC MEDIA: insoluble in serum
[13]
  nature (neutral, anionic, apolar) at physiological pH: neutral

## C[C@@H]1[C@H](O)[C@@H](C)/C=C/C=C/C=C/C=C/C=C/C=C/C=C/[C@H](O[C@@H]2O[C@H](C)[C@@H](O)[C@H](N)[C@@H]2O)C[C@@H]2O[C@](O)(C[C@@H](O)C[C@@H](O)[C@H](O)CC[C@@H](O)C[C@@H](O)CC(=O)O[C@H]1C)C[C@H](O)[C@H]2C(=O)O [Amphotericin B]
[13]; DMF + HCl
  SOLUBILITY IN ORGANIC MEDIA: DMF + HCl (60-80 mg/mL)
[13]; DMF
  SOLUBILITY IN ORGANIC MEDIA: soluble in DMF (2-4 mg/mL),
[13]; DMSO
  SOLUBILITY IN ORGANIC MEDIA: DMSO (30-40 mg/mL)
[13]
  nature (neutral, anionic, apolar) at physiological pH: anionic
[13]; water at pH 2 or pH 11
  SOLUBILITY IN WATER: 11 (0.1 mg/mL)

## ClC(Cl)Cl [Chloroform, CHCl3]
[13]
  nature (neutral, anionic, apolar) at physiological pH: apolar

## N.N.[Cl][Pt][Cl] [Cisplatin, cis-diaminodychloroplatin II]
[13]
  nature (neutral, anionic, apolar) at physiological pH: neutral

## O=C(O)P(=O)(O)O [Foscarnet, phosphonoformic acid]
[13]; in words
  SOLUBILITY IN ORGANIC MEDIA: insoluble
  SOLUBILITY IN WATER: soluble in water
[13]
  nature (neutral, anionic, apolar) at physiological pH: anionic

## C[C@H](O)C(=O)Nc1c(I)c(C(=O)NC(CO)CO)c(I)c(C(=O)NC(CO)CO)c1I [Iopamidol]
[13]; in words
  SOLUBILITY IN ORGANIC MEDIA: soluble in methanol insoluble
  SOLUBILITY IN WATER: soluble in water
[13]
  nature (neutral, anionic, apolar) at physiological pH: anionic

## OC[C@@H](O)[C@@H](O)[C@H](O)[C@H](O)CO [Mannitol]
[13]
  SOLUBILITY IN WATER: (1 g/5.5 mL)
  nature (neutral, anionic, apolar) at physiological pH: anionic
[13]; in words
  SOLUBILITY IN WATER: soluble in water

## C=CC[C@@H]1/C=C(\C)C[C@H](C)C[C@H](OC)[C@H]2O[C@@](O)(C(=O)C(=O)N3CCCC[C@H]3C(=O)O[C@H](/C(C)=C/[C@@H]3CC[C@@H](O)[C@H](OC)C3)[C@H](C)[C@@H](O)CC1=O)[C@H](C)C[C@@H]2OC.O [Tacrolimus]
[4]; from the time of seeding, cyclosporin A 1 or 10 μg/mL, tacrolimus 50 ng/mL
  cell growth in the presence of the nephrotoxic: dose-dependently reduced
[4]; post hoc analysis, cyclosporin 1 μg/mL and 10 μg/mL, tacrolimus (FK-506)
  day of culture from which cell growth is significantly decreased compared to control: ≥ 7 days
[13]; in words
  SOLUBILITY IN ORGANIC MEDIA: high
  SOLUBILITY IN WATER: insoluble
[13]
  nature (neutral, anionic, apolar) at physiological pH: apolar

## CN[C@H](CC(C)C)C(=O)NC1C(=O)N[C@@H](CC(N)=O)C(=O)N[C@H]2C(=O)N[C@H]3C(=O)N[C@H](C(=O)N[C@@H](C(=O)O)c4cc(O)cc(O)c4-c4cc3ccc4O)[C@H](O)c3ccc(c(Cl)c3)Oc3cc2cc(c3OC2O[C@@H](CO)[C@@H](O)[C@H](O)[C@@H]2O[C@@H]2C[C@](C)(N)[C@H](O)[C@@H](C)O2)Oc2ccc(cc2Cl)[C@H]1O (stereo partly shown) [Vancomycin]
[13]; in words
  SOLUBILITY IN WATER: water-soluble
[13]; in words, listed as VANCOMYCIN
  SOLUBILITY IN WATER: high

## CCCCC[C@@H](O)[C@H]1C(=O)O[C@H](C)[C@@H](O)/C=C/C=C/C=C/C=C/C=C(\C)[C@@H](O)C[C@H](O)C[C@H](O)C[C@H](O)C[C@H](O)C[C@H](O)C[C@@H]1O [filipin]
[14]
  cell death: causes cell death in a short time
[14]; […], cilastatin 200 μg/mL or filipin 50 μg/mL, pre-incubated 20 minutes
  internalization of fluorescent toxin B labeled caveolae from cell membrane to Golgi apparatus: prevents their internalization

## C[C@@H](O)[C@H]1C(=O)N2C(C(=O)O)=C(SCCN=CN)C[C@H]12 [imipenem]
rabbits
  tubular toxicity: may cause tubular toxicity

## Cyclosporin A
[5]; cyclosporin A at different doses
  percent cell death of human T cells: dose-response effect of the lethal effect
[11]
  cell morphology by scanning electron microscopy: causes cytosolic condensation, cell rupture, and monolayer disruption

## Gentamicin
[13]
  nature (neutral, anionic, apolar) at physiological pH: neutral
